Key:
[1] = biological target: T1, acyl coenzyme-A:cholesterol-O-acyl transferase (ACAT;EC 2.3.1.26) (Rattus norvegicus, UniProt Q7TQM4); experiment: In vitro ACAT inhibition in liver microsomes of cholesterol-fed rats, radiolabelled oleoyl-CoA; format: biochemical; details: 1μg/ml; microsomes from livers of rats fed 0.5% w/w cholesterol and 0.25% w/w cholic acid for 7 days; read-out: In-vitro % Inhibition (degree of ACAT inhibition)
T1 construct: microsomes, prepared from the livers of rats; from tissue; host or cells: liver microsomes of rats fed 0.5% w/w cholesterol and 0.25% w/w cholic acid for 7 days
T1 sequence (Q7TQM4 1-524): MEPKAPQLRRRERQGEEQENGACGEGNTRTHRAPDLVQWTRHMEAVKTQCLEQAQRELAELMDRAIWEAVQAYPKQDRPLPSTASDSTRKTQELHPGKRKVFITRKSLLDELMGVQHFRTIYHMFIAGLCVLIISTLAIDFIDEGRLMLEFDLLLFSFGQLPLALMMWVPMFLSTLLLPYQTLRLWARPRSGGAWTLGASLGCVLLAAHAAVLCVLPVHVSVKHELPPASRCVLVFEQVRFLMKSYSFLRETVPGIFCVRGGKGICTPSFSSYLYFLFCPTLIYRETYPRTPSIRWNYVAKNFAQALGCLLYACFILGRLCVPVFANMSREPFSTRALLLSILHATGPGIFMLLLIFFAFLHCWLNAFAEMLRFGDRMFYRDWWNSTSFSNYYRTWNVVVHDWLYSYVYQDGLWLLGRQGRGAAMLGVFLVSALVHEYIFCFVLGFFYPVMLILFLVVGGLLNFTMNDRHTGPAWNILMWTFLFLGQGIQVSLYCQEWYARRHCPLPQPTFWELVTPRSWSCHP

rats = experiment: In vivo inhibition of increase in plasma cholesterol level in rats fed a cholesterol supplemented diet; set-up: species or system rat; details: 0.03% w/w test compound in cholesterol supplemented diet, after 3 days, 100% or more = similar to control rats on normal diet
Protocol: In assays performed in vitro microsomes, prepared from the livers of rats fed a diet supplemented with 0.5% w/w cholesterol and 0.25% w/w cholic acid for 7 days, were incubated with radiolabelled oleoyl-CoA in the presence of compounds according to the invention at a concentration of 1μg/ml.
Values of 100% or more indicate plasma cholesterol concentrations that were similar to those of control rats fed on a normal (non-supplemented) diet.

Row | inhibition at 1 µg/mL [1] [%] | SMILES | In-vivo % Reduction (inhibition of increase in plasma cholesterol level relative to control animals) (rats) [%]
1 | 74 | CC1CC(C)OC(c2nc(-c3ccccc3)c(-c3ccccc3)[nH]2)O1 (racemic) [Compound C, (±)-cis/trans-2-(4,6-dimethyl-1,3-dioxan-2-yl)-4,5-diphenylimidazole] | –
2 | 94 | c1ccc(-c2nc(C3OCCCO3)[nH]c2-c2ccccc2)cc1 [Compound A, 2-(1,3-dioxan-2-yl)-4,5-diphenylimidazole] | 86
